Four compounds from the NIST ThermoML archive (doi:10.1016/j.jct.2005.04.005) can be followed below.

Molecules are shown by their SMILES. Numbers after ± are expanded uncertainties.

Usually mass density stands for mass per unit of volume. Usually speed of sound stands for the propagation velocity of pressure waves in the medium.

The nature of data set [1]: mn = molality of the nth substance listed, in mol/kg. The note with it: 101 kPa, Liquid.
The conditions of data set [2]: 298.15 K; 101 kPa; Liquid.

For the compound `O` [water] + C1COCCOCCOCCOCCOCCO1, the mass density in data set [1] (295.15 K, m2 = 0) amounted to 997.773 ± 0.6 kg/m3; in data set [1] (297.15 K, m2 = 0) it was 997.299 ± 0.6 kg/m3; in data set [1] (299.15 K, m2 = 0), 996.786 ± 0.6 kg/m3; in data set [1] (301.15 K, m2 = 0) it was 996.236 ± 0.61 kg/m3.

Consider `ClC(Cl)(Cl)Cl` [tetrachloromethane], for which, in data set [2], the mass density is 1584.35 ± 2.2 kg/m3 and the speed of sound came out at 921.5 ± 1.7 m/s.

`C1COCCOCCOCCOCCOCCO1` [1,4,7,10,13,16-hexaoxacyclooctadecane] + ClC(Cl)(Cl)Cl: the mass density in data set [1] (298.15 K, m1 = 0.0896) worked out at 1569.55 ± 2.1 kg/m3; in data set [1] (298.15 K, m1 = 0.1666), 1557.54 ± 2.1 kg/m3; in data set [1] (298.15 K, m1 = 0.3643), 1529.41 ± 2 kg/m3; in data set [1] (298.15 K, m1 = 0.5719) it was 1503.47 ± 1.9 kg/m3; in data set [1] (298.15 K, m1 = 0.8185) it was 1476.37 ± 1.8 kg/m3; in data set [1] (298.15 K, m1 = 1.013) it was 1457.02 ± 1.8 kg/m3. Besides, the speed of sound is recorded as 932.5 ± 1.7 m/s in data set [1] (298.15 K, m1 = 0.0896); 941.9 ± 1.7 m/s in data set [1] (298.15 K, m1 = 0.1666); 965.4 ± 1.8 m/s in data set [1] (298.15 K, m1 = 0.3643); 989.2 ± 1.8 m/s in data set [1] (298.15 K, m1 = 0.5719); 1015.6 ± 1.8 m/s in data set [1] (298.15 K, m1 = 0.8185); 1034.2 ± 1.8 m/s in data set [1] (298.15 K, m1 = 1.013).

`ClC(Cl)(Cl)Cl` [tetrachloromethane] + C1COCCOCCOCCOCCOCCO1: in data set [1] (298.15 K, m2 = 0), the mass density was 1584.35 ± 2.2 kg/m3 and the speed of sound is listed as 921.5 ± 1.7 m/s.
